Experimental data: patent US5869476A, “Pyrimidinone derivatives” (Boryung Pharmaceutical Co., Ltd., priority 1994, dated 1999)

Target: T1, angiotensin II receptor (Oryctolagus cuniculus, UniProt P34976)
T1 construct: The aorta was cut into 3~4 mm to form ring samples; from tissue; host or cells: isolated aorta rings of New Zealand White rabbits
T1 sequence (P34976 1-359): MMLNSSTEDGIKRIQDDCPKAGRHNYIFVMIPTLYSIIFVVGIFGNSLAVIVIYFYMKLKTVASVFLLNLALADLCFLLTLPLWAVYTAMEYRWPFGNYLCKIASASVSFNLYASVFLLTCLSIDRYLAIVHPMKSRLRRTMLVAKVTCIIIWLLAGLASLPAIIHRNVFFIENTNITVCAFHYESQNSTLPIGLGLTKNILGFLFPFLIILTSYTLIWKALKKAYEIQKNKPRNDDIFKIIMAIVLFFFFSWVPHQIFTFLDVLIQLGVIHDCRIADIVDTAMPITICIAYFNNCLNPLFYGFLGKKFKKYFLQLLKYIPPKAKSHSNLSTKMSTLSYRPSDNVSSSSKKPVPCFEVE
Assay: inhibition of angiotensin II induced contraction of isolated rabbit aorta rings
Format: cell-based, New Zealand White rabbit
Settings: test compound incubated 20 minutes, 37° C., pH 7.4, read-out: IC50 (concentration being required to inhibit angiotensin II induced contraction by 50%)
Outline: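 Rabbit aortic rings in Krebs-Henseleit, 37 °C, pH 7.4, 2 g tension, contracted with Angiotensin II […] three times, the third serving as control. Compound incubated 20 min before rechallenge; IC50 is concentration inhibiting Angiotensin II contraction by 50%.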

Structure (SMILES)	IC50
CCCCc1nc(C)c(CC(=O)N2CCN(C)CC2)c(=O)n1Cc1ccc(-c2ccccc2-c2nn[nH]n2)cc1 [Compound 76, 2-n-butyl-5-(4'-methylpiperazinocarbonylmethyl)-6-methyl-3-[[2'-(1H-tetrazol-5-yl)biphenyl-4-yl]methyl]-pyrimidin-4-(3H)-one]	3.59 nM
CCCCc1nc(C)c(CC(=O)N2CCN(C(C)=O)CC2)c(=O)n1Cc1ccc(-c2ccccc2-c2nn[nH]n2)cc1 [Compound 77, 2-n-butyl-5-(4'-acetylpiperazinocarbonylmethyl)-6-methyl-3-[[2'-(1H-tetrazol-5-yl)biphenyl-4-yl]methyl]-pyrimidin-4-(3H)-one]	2.17 nM
CCCCc1nc(C)c(CCC(=O)N2CCOCC2)c(=O)n1Cc1ccc(-c2ccccc2-c2nn[nH]n2)cc1 [Compound 78, 2-n-butyl-5-(2'-morpholinocarbonylethyl)-6-methyl-3-[[2'-(1H-tetrazol-5-yl)biphenyl-4-yl]methyl]-pyrimidin-4-(3H)-one]	5.22 nM
CCCCc1nc(C)c(CCC(=O)N2C(C)COCC2C)c(=O)n1Cc1ccc(-c2ccccc2-c2nn[nH]n2)cc1 (centres unmarked) [Compound 79, 2-n-butyl-5-[2'-(3",5"-dimethylmorpholino)carbonylethyl]-6-methyl-3-[[2'-(1H-tetrazol-5-yl)biphenyl-4-yl]methyl]-pyrimidin-4-(3H)-one]	13.1 nM
CCCCc1nc(C)c(CCC(=O)N2CCSCC2)c(=O)n1Cc1ccc(-c2ccccc2-c2nn[nH]n2)cc1 [Compound 80, 2-n-butyl-5-(2'-thiomorpholinocarbonylethyl)-6-methyl-3-[[2'-(1H-tetrazol-5-yl)biphenyl-4-yl]methyl]-pyrimidin-4-(3H)-one]	4.06 nM
CCCCc1nc(C)c(CCC(=O)N2CCN(C(C)=O)CC2)c(=O)n1Cc1ccc(-c2ccccc2-c2nn[nH]n2)cc1 [Compound 81, 2-n-butyl-5-[2'-(4"-acetylpiperazino)carbonylethyl]-6-methyl-3-[[2'-(1H-tetrazol-5-yI)biphenyl-4-yl]methyl]-pyrimidin-4-(3H)-one]	9.87 nM
CCCCc1nc(C)c(CCC(=O)N2CCN(c3ccccn3)CC2)c(=O)n1Cc1ccc(-c2ccccc2-c2nn[nH]n2)cc1 [Compound 82, 2-n-butyl-5-[2'-(4"-(2'"-pyridyl)piperazino)carbonylethyl]-6-methyl-3-[[2'-(1H-tetrazol-5-yl)biphenyl-4-yl]methyl]-pyrimidin-4-(3H)-one]	53 nM
CCCCc1nc(C)c(CCC(=O)N2CCN(C/C=C/c3ccccc3)CC2)c(=O)n1Cc1ccc(-c2ccccc2-c2nn[nH]n2)cc1 [Compound 83, 2-n-butyl-5-[2'-(4"-trans-cinnamylpiperazino)carbonylethyl]-6-methyl-3-[[2'-(1H-tetrazol-5-yl)biphenyl-4-yl]methyl]-pyrimidin-4-(3H)-one]	151 nM
